How the values were obtained:
HL-60 = assay: Antiproliferative activity against human HL60 cells after 48 hrs by MTT assay; assay type: functional, cell-based; conditions: HL-60, 48 h
NCI-H226 [1] = assay: Antiproliferative activity against human NCI-H226 cells after 48 hrs by MTT assay; assay type: functional, cell-based; conditions: NCI-H226, 48 h
IGROV-1 [2] = assay: Antiproliferative activity against human IGROV1 cells after 48 hrs by MTT assay; assay type: functional, cell-based; conditions: IGROV-1, 48 h
UO-31 [3] = assay: Antiproliferative activity against human UO31 cells after 48 hrs by MTT assay; assay type: functional, cell-based; conditions: UO-31, 48 h
MDA-MB-468 [4] = assay: Antiproliferative activity against human MDA-MB-468 cells after 48 hrs by MTT assay; assay type: functional, cell-based; conditions: MDA-MB-468, 48 h
UO-31 [5] = assay: Induction of apoptosis in human UO31 cells assessed as caspase-3 activation by measuring active caspase-3 level at 6.44 uM by […] (reference value: 66 pg/ml); assay type: functional
CCRF-CEM = assay: Growth inhibition of human CCRF-CEM cells at 10^-5 M incubated for 48 hrs by sulforhodamine B assay relative to control; assay type: functional; conditions: read-out: GI
HL-60(TB) = assay: Growth inhibition of human HL-60(TB) cells at 10^-5 M incubated for 48 hrs by sulforhodamine B assay relative to control; assay type: functional; conditions: HL-60, 48 h, read-out: GI
K562 = assay: Growth inhibition of human K562 cells at 10^-5 M incubated for 48 hrs by sulforhodamine B assay relative to control; assay type: functional; conditions: K562, 48 h, read-out: GI
MOLT-4 = assay: Growth inhibition of human MOLT4 cells at 10^-5 M incubated for 48 hrs by sulforhodamine B assay relative to control; assay type: functional; conditions: MOLT-4, 48 h, read-out: GI
RPMI-8226 = assay: Growth inhibition of human RPMI8226 cells at 10^-5 M incubated for 48 hrs by sulforhodamine B assay relative to control; assay type: functional; conditions: RPMI-8226, 48 h, read-out: GI
HOP-62 = assay: Growth inhibition of human HOP62 cells at 10^-5 M incubated for 48 hrs by sulforhodamine B assay relative to control; assay type: functional; conditions: HOP-62, 48 h, read-out: GI
HOP-92 = assay: Growth inhibition of human HOP92 cells at 10^-5 M incubated for 48 hrs by sulforhodamine B assay relative to control; assay type: functional; conditions: HOP-92, 48 h, read-out: GI
NCI-H226 [6] = assay: Growth inhibition of human NCI-H226 cells at 10^-5 M incubated for 48 hrs by sulforhodamine B assay relative to control; assay type: functional; conditions: NCI-H226, 48 h, read-out: GI
SF-539 = assay: Growth inhibition of human SF539 cells at 10^-5 M incubated for 48 hrs by sulforhodamine B assay relative to control; assay type: functional; conditions: SF-539, 48 h, read-out: GI
SNB-75 = assay: Growth inhibition of human SNB75 cells at 10^-5 M incubated for 48 hrs by sulforhodamine B assay relative to control; assay type: functional; conditions: SNB-75, 48 h, read-out: GI
LOX IMVI = assay: Growth inhibition of human LOXIMVI cells at 10^-5 M incubated for 48 hrs by sulforhodamine B assay relative to control; assay type: functional; conditions: read-out: GI
SK-MEL-5 = assay: Growth inhibition of human SK-MEL-5 cells at 10^-5 M incubated for 48 hrs by sulforhodamine B assay relative to control; assay type: functional; conditions: SK-MEL-5, 48 h, read-out: GI
IGROV-1 [7] = assay: Growth inhibition of human IGROV1 cells at 10^-5 M incubated for 48 hrs by sulforhodamine B assay relative to control; assay type: functional; conditions: IGROV-1, 48 h, read-out: GI
A498 = assay: Growth inhibition of human A498 cells at 10^-5 M incubated for 48 hrs by sulforhodamine B assay relative to control; assay type: functional; conditions: A498, 48 h, read-out: GI
UO-31 [8] = assay: Growth inhibition of human UO31 cells at 10^-5 M incubated for 48 hrs by sulforhodamine B assay relative to control; assay type: functional; conditions: UO-31, 48 h, read-out: GI
PC-3 = assay: Growth inhibition of human PC3 cells at 10^-5 M incubated for 48 hrs by sulforhodamine B assay relative to control; assay type: functional; conditions: PC-3, 48 h, read-out: GI
MCF7 = assay: Growth inhibition of human MCF7 cells at 10^-5 M incubated for 48 hrs by sulforhodamine B assay relative to control; assay type: functional; conditions: MCF7, 48 h, read-out: GI
MDA-MB-231 = assay: Growth inhibition of human MDA-MB-231 cells at 10^-5 M incubated for 48 hrs by sulforhodamine B assay relative to control; assay type: functional; conditions: MDA-MB-231, 48 h, read-out: GI
T47D = assay: Growth inhibition of human T47D cells at 10^-5 M incubated for 48 hrs by sulforhodamine B assay relative to control; assay type: functional; conditions: read-out: GI
MDA-MB-468 [9] = assay: Growth inhibition of human MDA-MB-468 cells at 10^-5 M incubated for 48 hrs by sulforhodamine B assay relative to control; assay type: functional; conditions: MDA-MB-468, 48 h, read-out: GI
UO-31 [10] = assay: Potency index, ratio of doxorubicin IC50 to compound IC50 for antiproliferative activity against human UO31 cells; assay type: functional
NCI-H226 [11] = assay: Potency index, ratio of doxorubicin IC50 to compound IC50 for antiproliferative activity against human NCI-H226 cells; assay type: functional
IGROV-1 [12] = assay: Potency index, ratio of doxorubicin IC50 to compound IC50 for antiproliferative activity against human IGROV1 cells; assay type: functional
NCI-H226 [13] = assay: Antiproliferative activity against human NCI-H226 cells after 48 hrs by SRB assay; assay type: functional; conditions: NCI-H226, 48 h, read-out: LC50 (the source's name)
IGROV-1 [14] = assay: Antiproliferative activity against human IGROV1 cells after 48 hrs by SRB assay; assay type: functional; conditions: IGROV-1, 48 h, read-out: LC50 (the source's name)
UO-31 [15] = assay: Antiproliferative activity against human UO31 cells after 48 hrs by SRB assay; assay type: functional; conditions: UO-31, 48 h
UO-31 [16] = assay: Cell cycle arrest in human UO31 cells assessed as accumulation at G1 phase at 0.72 uM after 24 hrs by propidium iodide staining based flow cytometry (reference value: 69.55%); assay type: functional
UO-31 [17] = assay: Cell cycle arrest in human UO31 cells assessed as accumulation at G2 phase at 0.72 uM after 24 hrs by propidium iodide staining based flow cytometry (reference value: 5.49%); assay type: functional
UO-31 [18] = assay: Cell cycle arrest in human UO31 cells assessed as accumulation at S phase at 0.72 uM after 24 hrs by propidium iodide staining based flow cytometry (reference value: 24.47%); assay type: functional
UO-31 [19] = assay: Cell cycle arrest in human UO31 cells assessed as apoptotic cells at 0.72 uM after 24 hrs by propidium iodide staining based flow cytometry (reference value: 0.49%); assay type: functional
UO-31 [20] = assay: Cell cycle arrest in human UO31 cells assessed as accumulation at pre-G1 phase at 0.72 uM after 24 hrs by propidium iodide staining based flow cytometry relative to control; assay type: functional
UO-31 [21] = assay: Cell cycle arrest in human UO31 cells assessed as accumulation at G2/M phase at 0.72 uM after 24 hrs by propidium iodide staining based flow cytometry relative to control; assay type: functional
UO-31 [22] = assay: Induction of apoptosis in human UO31 cells assessed as live cells at 0.72 uM after 24 hrs by Annexin V-FITC/propidium iodide staining based low cytometry (reference value: 97.84%); assay type: functional
UO-31 [23] = assay: Induction of apoptosis in human UO31 cells assessed as early apoptotic cells at 0.72 uM after 24 hrs by Annexin V-FITC/propidium iodide staining based flow cytometry (reference value: 0.19%); assay type: functional
UO-31 [24] = assay: Induction of apoptosis in human UO31 cells assessed as late apoptotic cells at 0.72 uM after 24 hrs by Annexin V-FITC/propidium iodide staining based flow cytometry (reference value: 0.22%); assay type: functional
UO-31 [25] = assay: Induction of apoptosis in human UO31 cells assessed as necrotic cells at 0.72 uM after 24 hrs by Annexin V-FITC/propidium iodide staining based flow cytometry (reference value: 0.08%); assay type: functional
UO-31 [26] = assay: Induction of apoptosis in human UO31 cells assessed as caspase-3 activation by measuring active caspase-3 level at 0.72 uM by […] (reference value: 66 pg/ml); assay type: functional
DNA topoisomerase 2-beta [27] = biological target: T1, DNA topoisomerase 2-beta (Homo sapiens, UniProt Q02880); assay: Inhibition of human topoisomerase-2B after 2 hrs by ELISA
T1 sequence (Q02880 whole entry): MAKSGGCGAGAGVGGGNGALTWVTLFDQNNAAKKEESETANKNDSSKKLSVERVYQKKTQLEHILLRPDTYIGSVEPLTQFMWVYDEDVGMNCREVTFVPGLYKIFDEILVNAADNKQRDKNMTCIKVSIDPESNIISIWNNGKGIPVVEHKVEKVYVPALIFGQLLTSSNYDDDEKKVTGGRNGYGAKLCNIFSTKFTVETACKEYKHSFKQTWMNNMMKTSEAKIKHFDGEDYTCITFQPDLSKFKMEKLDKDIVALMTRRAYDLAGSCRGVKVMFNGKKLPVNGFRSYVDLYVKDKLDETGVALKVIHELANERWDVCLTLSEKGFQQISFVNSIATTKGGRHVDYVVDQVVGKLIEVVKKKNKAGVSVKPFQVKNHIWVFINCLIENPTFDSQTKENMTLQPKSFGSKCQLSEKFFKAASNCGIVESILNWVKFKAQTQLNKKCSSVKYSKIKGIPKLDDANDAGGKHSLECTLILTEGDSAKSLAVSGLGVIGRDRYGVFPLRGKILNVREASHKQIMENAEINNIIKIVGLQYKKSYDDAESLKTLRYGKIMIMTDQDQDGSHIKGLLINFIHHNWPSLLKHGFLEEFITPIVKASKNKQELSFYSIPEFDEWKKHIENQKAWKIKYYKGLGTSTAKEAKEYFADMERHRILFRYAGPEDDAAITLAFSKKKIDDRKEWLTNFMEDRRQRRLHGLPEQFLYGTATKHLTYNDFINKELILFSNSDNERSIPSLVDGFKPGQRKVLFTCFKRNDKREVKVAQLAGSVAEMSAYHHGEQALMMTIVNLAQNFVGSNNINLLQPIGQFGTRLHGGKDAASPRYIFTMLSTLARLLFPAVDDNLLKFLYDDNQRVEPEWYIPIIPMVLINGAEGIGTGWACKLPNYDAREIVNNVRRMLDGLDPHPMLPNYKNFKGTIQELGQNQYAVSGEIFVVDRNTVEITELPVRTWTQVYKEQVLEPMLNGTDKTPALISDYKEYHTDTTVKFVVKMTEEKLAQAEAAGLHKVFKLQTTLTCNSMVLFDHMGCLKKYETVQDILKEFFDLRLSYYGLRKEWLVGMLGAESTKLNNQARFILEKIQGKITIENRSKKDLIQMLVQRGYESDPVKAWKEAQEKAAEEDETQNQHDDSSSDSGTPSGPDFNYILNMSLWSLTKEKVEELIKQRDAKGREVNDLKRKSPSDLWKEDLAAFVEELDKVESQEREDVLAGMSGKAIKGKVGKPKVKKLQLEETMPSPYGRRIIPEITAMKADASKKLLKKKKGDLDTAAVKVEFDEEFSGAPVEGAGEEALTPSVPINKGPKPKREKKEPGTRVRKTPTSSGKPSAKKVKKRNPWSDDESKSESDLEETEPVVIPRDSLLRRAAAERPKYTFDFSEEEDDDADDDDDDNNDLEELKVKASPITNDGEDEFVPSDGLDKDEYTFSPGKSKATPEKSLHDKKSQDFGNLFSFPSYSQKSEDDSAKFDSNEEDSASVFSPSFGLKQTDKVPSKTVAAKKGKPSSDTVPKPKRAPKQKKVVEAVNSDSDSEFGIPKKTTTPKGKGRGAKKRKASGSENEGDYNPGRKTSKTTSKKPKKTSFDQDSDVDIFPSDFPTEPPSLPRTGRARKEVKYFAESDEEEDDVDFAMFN

DNA topoisomerase 2-beta [28] = biological target: T1, DNA topoisomerase 2-beta; assay: Potency index, ratio of doxorubicin IC50 to compound IC50 for inhibition of human topoisomerase-2B
DNA topoisomerase 2-beta [29] = biological target: T1, DNA topoisomerase 2-beta; assay: Potency index, ratio of amsacrine IC50 to compound IC50 for inhibition of human topoisomerase-2B
Bacillus subtilis = assay: Antibacterial activity against Bacillus subtilis at 37 degC measured after 24 hrs by agar disc diffusion method; assay type: functional
Staphylococcus aureus = assay: Antibacterial activity against Staphylococcus aureus at 37 degC measured after 24 hrs by agar disc diffusion method; assay type: functional
Escherichia coli = assay: Antibacterial activity against Escherichia coli at 37 degC measured after 24 hrs by agar disc diffusion method; assay type: functional
Pseudomonas aeruginosa = assay: Antibacterial activity against Pseudomonas aeruginosa at 37 degC measured after 24 hrs by agar disc diffusion method; assay type: functional

## COc1cccc2c1C(=O)c1c(O)c3c(c(O)c1C2=O)C[C@@](O)(C(=O)CO)C[C@@H]3O[C@H]1C[C@H](N)[C@H](O)[C@H](C)O1 [DOXORUBICIN]
HL-60
  IC50: 8.91 µM
NCI-H226 [1]
  IC50: 5.07 µM
IGROV-1 [2]
  IC50: 4360 nM
UO-31 [3]
  IC50: 6.44 µM
MDA-MB-468 [4]
  IC50: 2810 nM
UO-31 [5]
  Activity: 375.6 pg/mL

## O=C(CN1CCN(c2cc3c(cc2F)c(=O)c(C(=O)O)cn3C2CC2)CC1)N/N=C/c1cc2ccccc2[nH]1
CCRF-CEM
  inhibition of growth at 10 µM: < 20%
HL-60(TB)
  inhibition of growth at 10 µM: < 20%
K562
  inhibition of growth at 10 µM: < 20%
MOLT-4
  inhibition of growth at 10 µM: < 20%
RPMI-8226
  inhibition of growth at 10 µM: < 20%
HOP-62
  inhibition of growth at 10 µM: 29%
HOP-92
  inhibition of growth at 10 µM: 29.8%
NCI-H226 [6]
  inhibition of growth at 10 µM: 34.4%
SF-539
  inhibition of growth at 10 µM: < 20%
SNB-75
  inhibition of growth at 10 µM: < 20%
LOX IMVI
  inhibition of growth at 10 µM: 36.6%
SK-MEL-5
  inhibition of growth at 10 µM: < 20%
IGROV-1 [7]
  inhibition of growth at 10 µM: 43.5%
A498
  inhibition of growth at 10 µM: < 20%
UO-31 [8]
  inhibition of growth at 10 µM: 34.1%
PC-3
  inhibition of growth at 10 µM: 20.3%
MCF7
  inhibition of growth at 10 µM: < 20%
MDA-MB-231
  inhibition of growth at 10 µM: 28.1%
T47D
  inhibition of growth at 10 µM: 25.5%
MDA-MB-468 [9]
  inhibition of growth at 10 µM: < 20%
NCI-H226 [1]
  IC50: 1.02 µM
IGROV-1 [2]
  IC50: 750 nM
UO-31 [3]
  IC50: 0.72 µM
UO-31 [10]
  Ratio IC50: 1.5 - 9
NCI-H226 [11]
  Ratio IC50: 4.9
IGROV-1 [12]
  Ratio IC50: 5.8
NCI-H226 [13]
  CC50: 15.4 µM
IGROV-1 [14]
  CC50: 18.8 µM
UO-31 [15]
  LC50: 15.1 µM
UO-31 [16]
  Activity: 62.64%
UO-31 [17]
  Activity: 11.32%
UO-31 [18]
  Activity: 21.69%
UO-31 [19]
  Activity: 4.35%
UO-31 [20]
  fold change (FC): 8.8
UO-31 [21]
  fold change (FC): 2.06
UO-31 [22]
  Activity: 93.84%
UO-31 [23]
  Activity: 2.14%
UO-31 [24]
  Activity: 1.88%
UO-31 [25]
  Activity: 0.33%
UO-31 [26]
  Activity: 293.6 pg/mL
DNA topoisomerase 2-beta [27]
  IC50: 860 nM
DNA topoisomerase 2-beta [28]
  Ratio IC50: 4
DNA topoisomerase 2-beta [29]
  Ratio IC50: 3
Bacillus subtilis
  diameter of the inhibition zone (DIZ): 27 mm
Staphylococcus aureus
  diameter of the inhibition zone (DIZ): 25 mm
Escherichia coli
  diameter of the inhibition zone (DIZ): 25 mm
Pseudomonas aeruginosa
  diameter of the inhibition zone (DIZ): 27 mm
